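The compound was tested at five concentrations on cells cultured in 96-well plates, with a 48-hour exposure period. The concentration for 50% growth inhibition is given as GI50. TGI marks complete inhibition of growth.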
How the values were obtained:
Test in all cases: DTP human tumour cell line panel, 48 h
UACC-257 melanoma = test system: UACC-257 melanoma
MDA-MB-435 = test system: MDA-MB-435
EKVX NSCLC = test system: EKVX NSCLC
OVCAR-5 ovarian = test system: OVCAR-5 ovarian
SK-MEL-5 melanoma = test system: SK-MEL-5 melanoma
HCC-2998 colon = test system: HCC-2998 colon
SNB-19 CNS = test system: SNB-19 CNS
RPMI-8226 leukemia = test system: RPMI-8226 leukemia
NCI-H460 lung = test system: NCI-H460 lung
OVCAR-3 ovarian = test system: OVCAR-3 ovarian

| Structure (SMILES) | GI50 (UACC-257 melanoma) [µM] | TGI (UACC-257 melanoma) [µM] | GI50 (MDA-MB-435) [µM] | TGI (MDA-MB-435) [µM] | GI50 (EKVX NSCLC) [µM] | TGI (EKVX NSCLC) [µM] | GI50 (OVCAR-5 ovarian) [µM] | TGI (OVCAR-5 ovarian) [µM] | GI50 (SK-MEL-5 melanoma) [µM] | TGI (SK-MEL-5 melanoma) [µM] | GI50 (HCC-2998 colon) [µM] | TGI (HCC-2998 colon) [µM] | GI50 (SNB-19 CNS) [µM] | TGI (SNB-19 CNS) [µM] | GI50 (RPMI-8226 leukemia) [µM] | TGI (RPMI-8226 leukemia) [µM] | GI50 (NCI-H460 lung) [µM] | TGI (NCI-H460 lung) [µM] | GI50 (OVCAR-3 ovarian) [µM] | TGI (OVCAR-3 ovarian) [µM] |
| --- | --- | --- | --- | --- | --- | --- | --- | --- | --- | --- | --- | --- | --- | --- | --- | --- | --- | --- | --- | --- |
| COc1ccc(-c2[nH]c3ccccc3c2-c2ccc(OC)cc2)cc1 | 7.22 | 23.2 | 1.79 | 4.58 | 5.05 | 42.9 | 15.4 | 33.9 | 3.65 | 15.2 | 6.11 | 21.1 | 5.06 | 20.6 | 3.27 | 69.5 | 3.65 | 14 | 2.18 | 5.27 |
| O=C1c2c(c3c4ccccc4[nH]c3c3ccc4ccccc4c23)C(=O)N1CCN1CCNCC1 | 1.87 | 3.82 | 1.67 | 3.11 | 1.59 | 3.15 | 1.72 | 3.12 | 1.78 | 3.31 | 1.63 | 3.15 | 1.6 | 2.99 | 1.81 | 4.1 | 1.1 | 2.6 | 1.83 | 3.48 |
| c1cnn2ncc(-c3ccnc(NCCCN4CCOCC4)n3)c2c1 | 6.68 | > 22.1 | 7.56 | > 25 | 6.67 | > 25 | 7.28 | 24.9 | 3.63 | 9.7 | 9.29 | > 25 | 8.35 | > 25 | 6.7 | > 25 | 6.56 | > 25 | 6.16 | > 21.9 |
| O=C(NN1C(=O)CSC12CCCCC2)c1[nH]c2ccc(Br)cc2c1-c1ccccc1 | 26.4 | 72.5 | 18.8 | 48.9 | 48.2 | > 100 | 31.3 | 95.5 | 31.2 | > 100 | 25.2 | 70.4 | 24.1 | 64.2 | 12.7 | 33.2 | 20.7 | 57.9 | 15.5 | 29.4 |
| COc1ccc(-c2cc(-c3ccc(C)cc3)nc3nc(=S)[nH]c(N)c23)cc1 | 22.8 | 45.3 | 17.6 | 36.9 | 25.8 | 96 | 39.3 | 96.9 | 14.1 | 29.6 | 23.6 | 42.9 | 37.6 | > 100 | 18.4 | 44.4 | 12 | 27.5 | 13.6 | 30.4 |
| CC1=C2[C@@H](CC1)[C@]1(C)O[C@@](c3ccccc3)(C[C@H]1OC(=O)CO)[C@H]2OC(=O)/C=C/c1ccccc1 | 22.6 | 49.9 | 16.2 | 35.9 | 7.99 | 41.4 | 20.2 | 47.4 | 15.3 | 29.7 | 15.2 | 31.6 | 22.1 | 59.8 | 12.8 | 43.7 | 16 | 38.2 | 15 | 30.6 |

— PubChem BioAssay (NCI)
